Experimental data as given in patent publication US12269811B2, “Synthesis of omecamtiv mecarbil” (Amgen Inc., priority 2017, dated 2025).
Values after ≈ are worked out from the molar mass of the structure shown. Each block holds one compound with its values, some of them ahead of it.

Columns and labels:
Type in all cases: physicochemical
[1] = Dynamic vapor sorption (DVS) isothermal plot of PMEC salt forms; settings: FIG. 1; for DVS weight increase onset: relative humidity at onset of weight increase
Procedure: The DVS weight increase onset for each salt was measured as noted—35% relative humidity (RH) for the hemi-sulfate; 50% RH for the acetate; and 65% RH for the phosphate hydrate. The phosphate hydrate is termed phosphate or hemi-phosphate and the hemi-sulfate is termed sulfate or hemi-sulfate in the figure.

[2] = Piperazine levels upon storage
[3] = Solubility in isopropanol

DVS weight increase onset [1]: 65 % RH | piperazine levels upon storage ([2]; upon storage, level <0.4 GC area %): do not increase upon storage
Compound: COC(=O)N1CCNCC1 [PMEC phosphate hydrate, methyl piperazine-1-carboxylate]
hygroscopicity ([1]; compared with the sulfate and acetate salts): less hygroscopic than the corresponding sulfate and acetate salt

solubility in isopropanol ([3]; 20° C.): about 10 mg/mL | solubility ([3]; 20 °C, organic solvent or mixture): ~12 mg/mL (≈ 29.9 mM)
Compound: COC(=O)N1CCN(Cc2cccc(NC(=O)Nc3ccc(C)nc3)c2F)CC1 [omecamtiv mecarbil]

DVS weight increase onset [1]: 35 % RH
Compound: COC(=O)N1CCNCC1 [hemi-sulfate, methyl piperazine-1-carboxylate]

piperazine levels upon storage ([2]; storage at 25° C.): up to 18 LC area %
Compound: COC(=O)N1CCNCC1 [PMEC freebase, methyl piperazine-1-carboxylate]

DVS weight increase onset [1]: 50 % RH
Compound: COC(=O)N1CCNCC1 [acetate, methyl piperazine-1-carboxylate]
